Data on two compounds can be found in patent US6716829B2, “Aldosterone antagonist and cyclooxygenase-2 inhibitor combination therapy to prevent or treat inflammation-related cardiovascular disorders” (Pharmacia Corporation, priority 2000, dated 2004).

The experiment deals with marker proteins (osteopontin, ED-1, CD-3, ICAM-1, VCAM-1). Put plainly: Assay C: immunohistochemistry of myocardial tissue (osteopontin, ED-1, CD-3, ICAM-1, VCAM-1). The experiment is classed as in vivo, Male Sprague-Dawley rats. The settings on record: aldosterone + salt treated rats; eplerenone 100 mg/kg/day. Here is the method: The procedure of Assay B was expanded upon in a further study. […] Myocardial tissue from animals in each treatment group was examined after 7, 14, or 30 days of treatment. […] Lesions were preceded by the expression and progressive upregulation of proinflammatory molecules.
Potassium chloride supplementation was added to the saline solution in order to prevent the potential hypokalemia associated with aldosterone excess.
At the time of the surgery, an Alzet 2002 osmotic minipump (Alza Corp., Palo Alto, Calif.) containing either vehicle (9% ethanol/87% propylene glycol/4% dH2O) or 1.0 mg/mL d-aldosterone (Sigma Chemical, St. Louis, Mo.) was inserted subcutaneously at the nape of the neck. Aldosterone was administered at a dose of 0.75 µg/hour. […] Animals were sacrificed from each group (n=8-13) after 7, 14, or 30 days of treatment.
The equatorial regions of the heart were routinely processed into paraffin with an automated tissue processor (Hypercenter XP, Shandon/Lipshaw Inc., Pittsburgh, Pa.) and embedded into fresh paraffin apical side down (Shandon Embedding Center, Shandon/Lipshaw Inc.). Five and 10 µm sections were cut from each block of tissue using a Leica RM2035 rotary microtome (Leica Inc., Houston, Tex.) and mounted on Superfrost/Plus microscope slides (Fisher Scientific, Pittsburgh, Pa.). […]

In the case of `COC(=O)[C@@H]1CC2=CC(=O)CC[C@]2(C)[C@@]23O[C@@H]2C[C@@]2(C)[C@@H](CC[C@@]24CCC(=O)O4)[C@H]13` [Eplerenone], the “Staining in myocardial tissue for marker proteins (immunohistochemistry)” value is recorded as “markedly blunted”.
With `C[C@]12CCC(=O)C=C1CC[C@@H]1[C@@H]2[C@@H](O)C[C@]2(C=O)[C@@H](C(=O)CO)CC[C@@H]12` [Aldosterone], the “Staining in myocardial tissue for marker proteins (immunohistochemistry)” value is “Significant expression of osteopontin”.
